Values of other authors, collected in patent US9375470B2, “Compositions with reduced dimer formation” (Circassia Limited, priority 2008, dated 2016).
Where two headings read alike, the source gives them in different places.

[1] = reported values, Tg for the maximally freeze concentrated state

Tg′ | Tg (reported values) | Tg′ [1] | Teut (eutectic temperature) | SMILES
−32 °C | 43-65 °C | Approx. −46 | – | OC[C@H]1O[C@@](CO)(O[C@H]2O[C@H](CO)[C@@H](O)[C@H](O)[C@H]2O)[C@@H](O)[C@@H]1O [Sucrose]
– | 63-115 °C | Approx. −27 | – | OC[C@H]1O[C@H](O[C@H]2O[C@H](CO)[C@@H](O)[C@H](O)[C@H]2O)[C@H](O)[C@@H](O)[C@@H]1O [Trehalose]
– | – | – | −3 °C | OC[C@@H](O)[C@@H](O)[C@H](O)[C@H](O)CO [mannitol]

More lines, now with the values behind:

SMILES | Tg′ | Tg (reported values) | Tg′ [1] | Teut (eutectic temperature)
OC[C@H]1O[C@@](CO)(O[C@H]2O[C@H](CO)[C@@H](O)[C@H](O)[C@H]2O)[C@@H](O[C@H]2O[C@H](CO)[C@@H](O)[C@H](O)[C@H]2O)[C@@H]1O [Melezitose] | – | >100 °C | – | –
OC[C@H]1O[C@H](OC[C@H]2O[C@H](OC[C@H]3O[C@H](O[C@]4(CO)O[C@H](CO)[C@@H](O)[C@@H]4O)[C@H](O)[C@@H](O)[C@@H]3O)[C@H](O)[C@@H](O)[C@H]2O)[C@H](O)[C@@H](O)[C@H]1O [Stachyose] | – | 81-123 °C | – | –
OC[C@H]1O[C@H](OC[C@H]2O[C@H](O[C@]3(CO)O[C@H](CO)[C@@H](O)[C@@H]3O)[C@H](O)[C@@H](O)[C@@H]2O)[C@H](O)[C@@H](O)[C@H]1O [Raffinose] | – | 70-106 °C | Approx. −36 | –
